Activity calls are given as the source filed them.
Legend:
[1] = biological target: Neuropeptide Y receptor type 2 (Homo sapiens, UniProt P49146); experiment: Fluorescence-based cell-based high-throughput dose response assay for agonists of NPY-Y2. [Related pubchem assays: 1703 (Screening assay (CNGC inhibitors).), 1359 (Screening assay (NPY-Y2 potentiators or agonists).), 1304 (Screening assay (NPY-Y1 potentiators or agonists).), 1710 (Screening assay (NPY-Y2 agonists).), 1791 (Summary AID.)]; type: functional
[2] = biological target: Neuropeptide Y receptor type 1 (Homo sapiens, UniProt P25929); experiment: Fluorescence-based counterscreen for agonists of NPY-Y2: cell-based high-throughput dose response assay for agonists of NPY-Y1.; type: functional
HEK293 = experiment: Fluorescence-based counterscreen for potentiators or agonists of NPY-Y2: cell-based high-throughput dose response assay to identify inhibitors of cyclic nucleotide gated ion channel (CNGC) activity. In this assay, the parental HEK293 cell line transfected with a cyclic-nucleotide gated ion channel (CNGC)-based cAMP sensor is used to measure inhibition of isoproterenol-induced CNGC activity by test compound.; type: functional; settings: Homo sapiens;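 further: stimulus is 1 µM isoproterenol at EC100 plus PDE inhibitor Ro 20-1724 at 25 µM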
[3] = Counterscreen for IDE inhibitors: Luminescence-based cell-based high throughput dose response assay to identify compounds that are cytotoxic to HEK cells. [Related pubchem assays: 434962 (Primary screen (IDE inhibitors in singlicate)), 449730 (Counterscreen (Cytotoxicity in triplicate)), 435028 (Confirmation (IDE inhibitors in triplicate)) …; type: functional; settings: HEK293
Insulin-degrading enzyme = biological target: T1, Insulin-degrading enzyme (Homo sapiens, UniProt P14735); experiment: Dose Response: Fluorescence polarization-based cell-based high throughput dose response assay for inhibitors of insulin-degrading enzyme (IDE). [Related pubchem assays: 434962 (Primary screen (IDE inhibitors in singlicate)), 449730 (Counterscreen (Cytotoxicity in triplicate)), 435028 (Confirmation (IDE inhibitors in triplicate)), 434984 (Summary …; type: functional
T1 sequence (P14735 whole entry): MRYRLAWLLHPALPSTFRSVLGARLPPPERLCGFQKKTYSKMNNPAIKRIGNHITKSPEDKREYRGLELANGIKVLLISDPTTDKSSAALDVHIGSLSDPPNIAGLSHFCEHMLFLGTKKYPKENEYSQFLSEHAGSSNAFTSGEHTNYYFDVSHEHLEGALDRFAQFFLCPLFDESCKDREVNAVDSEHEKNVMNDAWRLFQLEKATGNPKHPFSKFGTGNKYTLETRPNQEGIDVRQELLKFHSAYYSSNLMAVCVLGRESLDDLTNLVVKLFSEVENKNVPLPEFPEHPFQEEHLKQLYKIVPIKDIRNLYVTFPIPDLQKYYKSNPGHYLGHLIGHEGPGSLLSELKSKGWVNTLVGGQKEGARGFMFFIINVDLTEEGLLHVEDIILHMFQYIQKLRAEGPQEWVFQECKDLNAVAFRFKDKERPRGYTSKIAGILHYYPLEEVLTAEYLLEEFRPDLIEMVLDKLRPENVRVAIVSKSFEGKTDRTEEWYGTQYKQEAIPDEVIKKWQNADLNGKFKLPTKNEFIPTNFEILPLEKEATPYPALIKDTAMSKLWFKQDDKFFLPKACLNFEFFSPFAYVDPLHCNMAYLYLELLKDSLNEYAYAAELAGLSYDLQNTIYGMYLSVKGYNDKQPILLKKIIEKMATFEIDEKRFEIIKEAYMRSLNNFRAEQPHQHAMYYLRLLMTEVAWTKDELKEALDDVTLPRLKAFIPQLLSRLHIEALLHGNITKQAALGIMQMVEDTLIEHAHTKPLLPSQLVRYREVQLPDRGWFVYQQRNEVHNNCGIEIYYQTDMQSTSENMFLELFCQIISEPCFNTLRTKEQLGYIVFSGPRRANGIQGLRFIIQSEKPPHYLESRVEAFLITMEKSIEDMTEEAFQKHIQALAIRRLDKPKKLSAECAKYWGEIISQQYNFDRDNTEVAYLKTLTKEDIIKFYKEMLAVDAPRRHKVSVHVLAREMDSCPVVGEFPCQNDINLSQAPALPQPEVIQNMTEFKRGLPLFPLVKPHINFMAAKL

Protein RecA = biological target: T2, Protein RecA (Mycobacterium tuberculosis, UniProt P9WHJ3); experiment: Fluorescence Cell-Free Homogeneous Dose Retest to Identify Inhibitors of RecA-Intein Splicing Activity. [Related pubchem assays (depositor defined):AID2097, AID2223, AID489010, AID492950]; type: functional
T2 sequence (P9WHJ3 whole entry): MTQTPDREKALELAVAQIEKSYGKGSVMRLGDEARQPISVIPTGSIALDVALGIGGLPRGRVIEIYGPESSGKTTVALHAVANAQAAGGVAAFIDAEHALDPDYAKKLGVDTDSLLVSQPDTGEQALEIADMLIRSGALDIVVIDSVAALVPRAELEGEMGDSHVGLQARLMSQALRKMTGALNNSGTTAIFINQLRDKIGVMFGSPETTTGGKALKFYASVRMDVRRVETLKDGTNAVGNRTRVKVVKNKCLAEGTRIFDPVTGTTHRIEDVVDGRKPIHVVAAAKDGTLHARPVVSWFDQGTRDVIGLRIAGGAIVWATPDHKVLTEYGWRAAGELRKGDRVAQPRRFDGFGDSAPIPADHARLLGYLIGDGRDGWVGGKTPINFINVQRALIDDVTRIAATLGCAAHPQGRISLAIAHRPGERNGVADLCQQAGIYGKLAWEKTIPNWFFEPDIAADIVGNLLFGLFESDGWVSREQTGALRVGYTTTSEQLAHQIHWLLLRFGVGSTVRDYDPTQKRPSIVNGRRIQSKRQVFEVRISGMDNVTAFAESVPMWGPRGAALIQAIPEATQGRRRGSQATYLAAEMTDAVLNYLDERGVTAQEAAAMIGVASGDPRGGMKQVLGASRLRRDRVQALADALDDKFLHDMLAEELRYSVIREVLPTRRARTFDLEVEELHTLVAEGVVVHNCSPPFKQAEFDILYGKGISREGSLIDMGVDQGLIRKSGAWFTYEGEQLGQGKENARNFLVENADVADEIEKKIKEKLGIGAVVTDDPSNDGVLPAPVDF

[4] = biological target: Serine/threonine-protein phosphatase (Homo sapiens, UniProt Q9BPW0); experiment: Counterscreen for inhibitors of PP1: fluorescence-based biochemical high throughput dose response assay to identify inhibitors of Protein Phosphatase 5 (PP5). [Related pubchem assays: 2034 (Summary (PP5 inhibitors)), 1987 (PP5 inhibitors in singlate), 2235 (PP1 inhibitors in singlate)]
[5] = biological target: T3, Replicative DNA helicase DnaB (Mycobacterium tuberculosis, UniProt P9WMR3); experiment: DnaB intein splicing inhibitors, dose response, biochemical, cell-free fluorescence (AID 449749); type: functional
T3 sequence (P9WMR3 whole entry): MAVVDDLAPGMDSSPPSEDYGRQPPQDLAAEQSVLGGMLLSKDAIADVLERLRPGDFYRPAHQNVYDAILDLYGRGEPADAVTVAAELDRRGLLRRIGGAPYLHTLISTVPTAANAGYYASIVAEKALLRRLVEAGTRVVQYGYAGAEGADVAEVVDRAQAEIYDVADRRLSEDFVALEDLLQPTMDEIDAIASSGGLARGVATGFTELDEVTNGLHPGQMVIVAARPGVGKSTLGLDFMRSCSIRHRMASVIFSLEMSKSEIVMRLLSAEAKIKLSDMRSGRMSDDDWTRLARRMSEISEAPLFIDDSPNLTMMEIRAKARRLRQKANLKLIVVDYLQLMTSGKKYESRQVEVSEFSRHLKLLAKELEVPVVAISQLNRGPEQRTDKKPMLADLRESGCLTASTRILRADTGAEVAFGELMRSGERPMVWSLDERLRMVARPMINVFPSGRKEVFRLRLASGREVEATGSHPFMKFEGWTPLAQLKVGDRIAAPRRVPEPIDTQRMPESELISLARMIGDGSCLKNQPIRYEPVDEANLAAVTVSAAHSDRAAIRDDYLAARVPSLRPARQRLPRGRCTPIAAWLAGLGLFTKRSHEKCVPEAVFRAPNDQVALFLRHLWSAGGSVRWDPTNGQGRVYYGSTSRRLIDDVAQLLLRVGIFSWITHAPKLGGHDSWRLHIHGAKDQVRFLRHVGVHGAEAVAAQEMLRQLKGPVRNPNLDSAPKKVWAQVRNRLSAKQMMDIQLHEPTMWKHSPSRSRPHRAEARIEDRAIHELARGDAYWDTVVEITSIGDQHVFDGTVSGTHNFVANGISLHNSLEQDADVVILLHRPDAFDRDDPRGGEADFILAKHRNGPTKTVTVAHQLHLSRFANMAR

Genome polyprotein = Genome polyprotein (dengue virus type 2, UniProt P29990); experiment: flavivirus cap methylation enzyme inhibition – biochemical, confirmation dose response, primary screen (AID 588689); type: functional
[6] = biological target: Dual specificity tyrosine-phosphorylation-regulated kinase 1A (Rattus norvegicus, UniProt Q63470); type: biochemical, Homo sapiens
[7] = biological target: Serine/threonine-protein phosphatase PP1-alpha catalytic subunit (Homo sapiens, UniProt P62136); experiment: inhibition of protein phosphatase 1 activity – biochemical, fluorescence, dose response (AID 2403);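 further: phosphatase turnover of OMFP into fluorescent 3-O-methylfluorescein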
Sequence of Serine/threonine-protein phosphatase PP1-alpha catalytic subunit (P62136 whole entry): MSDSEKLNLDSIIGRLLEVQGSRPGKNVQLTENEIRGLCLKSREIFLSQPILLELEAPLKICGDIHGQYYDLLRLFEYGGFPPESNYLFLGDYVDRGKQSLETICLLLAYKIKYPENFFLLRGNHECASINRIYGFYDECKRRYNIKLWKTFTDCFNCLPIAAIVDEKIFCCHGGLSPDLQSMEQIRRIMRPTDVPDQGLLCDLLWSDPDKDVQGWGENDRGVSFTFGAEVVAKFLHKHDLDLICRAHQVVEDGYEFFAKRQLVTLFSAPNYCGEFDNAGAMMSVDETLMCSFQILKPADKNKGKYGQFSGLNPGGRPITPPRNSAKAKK

Sequence of Neuropeptide Y receptor type 2 (P49146 whole entry): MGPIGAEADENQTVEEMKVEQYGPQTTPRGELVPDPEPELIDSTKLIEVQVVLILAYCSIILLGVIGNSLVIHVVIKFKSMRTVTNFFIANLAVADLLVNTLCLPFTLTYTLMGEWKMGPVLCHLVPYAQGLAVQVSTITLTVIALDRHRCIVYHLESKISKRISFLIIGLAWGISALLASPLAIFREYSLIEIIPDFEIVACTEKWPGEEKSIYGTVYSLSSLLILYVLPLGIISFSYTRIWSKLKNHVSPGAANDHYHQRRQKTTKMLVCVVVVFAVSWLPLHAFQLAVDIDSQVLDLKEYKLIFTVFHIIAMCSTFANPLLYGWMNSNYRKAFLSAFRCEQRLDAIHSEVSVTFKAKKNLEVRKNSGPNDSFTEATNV
Sequence of Serine/threonine-protein phosphatase (Q9BPW0 whole entry): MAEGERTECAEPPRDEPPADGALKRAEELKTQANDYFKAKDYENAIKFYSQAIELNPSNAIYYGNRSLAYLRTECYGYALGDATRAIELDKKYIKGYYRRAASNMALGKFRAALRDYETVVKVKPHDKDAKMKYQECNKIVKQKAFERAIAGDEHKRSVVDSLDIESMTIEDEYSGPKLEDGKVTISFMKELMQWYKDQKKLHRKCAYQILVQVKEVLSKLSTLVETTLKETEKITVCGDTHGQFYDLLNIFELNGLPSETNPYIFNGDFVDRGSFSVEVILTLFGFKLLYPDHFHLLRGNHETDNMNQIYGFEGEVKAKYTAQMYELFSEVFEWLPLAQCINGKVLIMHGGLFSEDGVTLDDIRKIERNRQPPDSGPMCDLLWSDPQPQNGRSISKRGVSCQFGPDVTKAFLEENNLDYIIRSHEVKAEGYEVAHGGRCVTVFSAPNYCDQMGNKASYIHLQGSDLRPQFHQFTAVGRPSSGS
Sequence of Neuropeptide Y receptor type 1 (P25929 whole entry): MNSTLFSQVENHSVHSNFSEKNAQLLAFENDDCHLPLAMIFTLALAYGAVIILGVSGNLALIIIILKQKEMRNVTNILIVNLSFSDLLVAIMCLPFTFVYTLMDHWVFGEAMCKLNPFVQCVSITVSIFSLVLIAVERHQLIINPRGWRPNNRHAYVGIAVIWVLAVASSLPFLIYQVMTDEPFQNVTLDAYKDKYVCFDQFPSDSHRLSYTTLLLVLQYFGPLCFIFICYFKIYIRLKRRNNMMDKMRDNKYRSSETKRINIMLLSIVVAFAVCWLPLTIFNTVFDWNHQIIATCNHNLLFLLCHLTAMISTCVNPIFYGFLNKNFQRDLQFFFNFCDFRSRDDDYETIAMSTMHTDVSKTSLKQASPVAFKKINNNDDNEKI
Sequence of Genome polyprotein (P29990 2492-3391 limits assumed): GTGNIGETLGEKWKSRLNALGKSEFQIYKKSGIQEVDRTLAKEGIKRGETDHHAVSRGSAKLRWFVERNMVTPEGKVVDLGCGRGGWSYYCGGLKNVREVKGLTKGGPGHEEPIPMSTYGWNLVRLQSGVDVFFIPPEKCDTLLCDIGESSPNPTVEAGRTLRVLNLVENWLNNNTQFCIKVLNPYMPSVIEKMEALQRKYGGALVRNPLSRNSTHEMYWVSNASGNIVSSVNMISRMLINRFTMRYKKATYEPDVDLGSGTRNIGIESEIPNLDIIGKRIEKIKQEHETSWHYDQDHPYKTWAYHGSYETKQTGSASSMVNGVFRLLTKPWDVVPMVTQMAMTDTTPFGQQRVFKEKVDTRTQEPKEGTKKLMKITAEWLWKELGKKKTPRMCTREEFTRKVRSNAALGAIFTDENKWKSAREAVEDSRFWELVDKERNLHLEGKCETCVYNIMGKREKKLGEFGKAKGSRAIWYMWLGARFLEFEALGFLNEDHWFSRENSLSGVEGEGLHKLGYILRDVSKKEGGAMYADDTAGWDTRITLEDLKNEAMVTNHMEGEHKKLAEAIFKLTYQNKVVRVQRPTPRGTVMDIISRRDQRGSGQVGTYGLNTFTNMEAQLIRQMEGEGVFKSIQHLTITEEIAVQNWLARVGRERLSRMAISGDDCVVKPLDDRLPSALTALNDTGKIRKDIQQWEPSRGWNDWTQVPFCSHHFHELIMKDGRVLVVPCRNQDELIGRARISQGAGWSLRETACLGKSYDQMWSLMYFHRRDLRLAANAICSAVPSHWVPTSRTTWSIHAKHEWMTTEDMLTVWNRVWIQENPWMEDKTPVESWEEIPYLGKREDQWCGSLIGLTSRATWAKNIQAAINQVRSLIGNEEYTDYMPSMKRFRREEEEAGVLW

With Cc1sc2nc(SCc3ccc(C(=O)O)cc3)n(Cc3ccco3)c(=O)c2c1C the EC50 [1] was > 35.4 µM (not active), the EC50 [2] was > 35.4 µM (not active) and the EC50 (HEK293) was > 35.4 µM (not active).

With CCCN1C(=O)/C(=C/c2ccc(N3CCOCC3)cc2)NC1=S the IC50 [3] was 19 µM (not active) and the IC50 (Insulin-degrading enzyme) was 33.1 µM (not active).

In the case of O=C(O)CC1OCC=C2CN3CCC45C6=CC(=O)C(O)=C([N+](=O)[O-])C6=NC4C1C2CC35 (stereo unspecified), the EC50 (Protein RecA) is reported as 7.02 µM (active), the IC50 [4] is reported as > 0.276 µM (active) and the AC50 [5] is reported as 6.67 µM (active). The IC50 (Genome polyprotein) was > 100 µM (active), the AC50 [6] was 3.17 µM (active) and the IC50 [7] was 1.97 µM (active).

— ChEMBL document CHEMBL1201862, “PubChem BioAssay data set” (2004)
